Source: patent US20240368163A1, “COMPOUNDS AND METHODS FOR MODULATING SPLICING” (REMIX THERAPEUTICS INC., priority 2021, published 2024)
Read-outs that look alike come from different tables or passages of the source.

Tests used:
Type in all cases: cell-based, human
Target C = assay: Splicing RT-qPCR panel, Target C canonical junction (CJ) mRNA; details: read-out: Target C IC50 (decrease in CJ mRNA levels)
In short: (§1)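 Splicing switch read by one-step RT-qPCR of canonical and alternative exon junctions, housekeeper-normalized (GAPDH/GUSB/PPIA), 2^(−ΔΔCt) vs DMSO as percent response. Cells (A673 or K562) dosed 24 h, 11 points 3-fold from 10 uM, DMSO ≤0.25%.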

HTT = assay: HiBiT protein abundance assay, HTT; details: modified K562 cells
In short: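 Luminescent readout from lytic HiBiT/LgBiT complementation reports endogenous tagged protein level in engineered K562 cells. Compounds dosed 24 h, top 10 μM final, 3-fold steps, 10 points. IC50 is the concentration giving 50% of untreated-control abundance, from 4-parameter logistic fit.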

SMN2 = assay: Splicing RT-qPCR panel, SMN2 canonical junction (CJ) mRNA; details: read-out: SMN2 IC50 (decrease in CJ mRNA levels)
In short: as §1

[1] = Homo sapiens, RT-qPCR panel, canonical junction mRNA, compound concentration having 50% response in CJ decrease
[2] = Homo sapiens, K562, 24 h, Table 13A
[3] = RT-qPCR panel, canonical junction mRNA, compound concentration having 50% response in CJ decrease
[4] = Homo sapiens, gene panel, CJ qPCR, protocol of Example 142
[5] = Homo sapiens, K562, 24 h, Table 13B

Structure (SMILES) | IC50 (Target C; [1]) [nM] | IC50 (HTT; [2]) [nM] | IC50 (SMN2; [1]) [nM] | further results
CN(c1ccc(-c2ccc(-c3cn[nH]c3)c3cn[nH]c23)nn1)[C@@H]1C[C@H]2CC[C@@H](C1)N2 [Compound 104] | 100 to 1000 | < 100 | < 100 | 
CN(c1ccc(-c2ccc(-c3cn[nH]c3)c3ncsc23)nn1)[C@H]1C[C@H]2COC[C@@H](C1)N2 [Compound 356, (endo)-N-methyl-N-{6-[4-(1H-pyrazol-4-yl)-1,3-benzothiazol-7-yl]pyridazin-3-yl}-3-oxa-9-azabicyclo[3.3.1]nonan-7-amine] |  |  |  | IC50 (Target C; [3]): < 100 nM; IC50 (HTT; Table 13A, 24 hours): < 100 nM; IC50 (SMN2; [3]): < 100 nM
Fc1cc(-c2ccc(N[C@@H]3C[C@H]4CC[C@@H](C3)N4)nn2)c2scnc2c1-c1cn[nH]c1 [Compound 339] | < 100 | < 100 | < 100 | 
Fc1ccn(-c2ccc(-c3ccc(O[C@@H]4C[C@H]5CC[C@@H](C4)N5)nn3)c3scnc23)n1 [Compound 363] | 100 to 1000 | < 100 | < 100 | 
c1n[nH]cc1-c1ccc(-c2ccc(N[C@@H]3C[C@H]4CCC[C@@H](C3)N4)nn2)c2[nH]ncc12 [Compound 294] | 100 to 1000 | 100 to 1000 | < 100 | 
c1cnn(-c2ccc(-c3cnc(N[C@@H]4C[C@H]5CCC[C@@H](C4)N5)nn3)c3cn[nH]c23)c1 [Compound 561] | 100 to 1000 | < 100 | 100 to 1000 | 
CC(C)(C)C1CN(c2ncc(-c3ccc(-n4cccn4)c4[nH]ncc34)nn2)CCN1 (stereo not drawn) [Compound 572] | 100 to 1000 | < 100 | 100 to 1000 | 
[2H]C([2H])([2H])N(c1ccc(-c2ccc(-c3cn[nH]c3)c3ncsc23)nn1)[C@@H]1C[C@H]2CC[C@@H](C1)N2 [Compound 210] | < 100 | < 100 | < 100 | 
Fc1cc(-c2ccc(O[C@@H]3C[C@H]4CC[C@@H](C3)N4)nn2)c2[nH]ncc2c1-c1cn[nH]c1 [Compound 216] | 100 to 1000 | < 100 | < 100 | 
CN(c1ccc(-c2ccc(-c3cn[nH]c3)c3ncsc23)nn1)[C@@H]1C[C@H]2CC[C@@H](C1)N2 [Compound 213] | < 100 | < 100 | < 100 | 
COc1nc(-c2ccc(N3CCC(NC(C)(C)C)C3)nn2)ccc1-c1cn[nH]c1 (stereo not drawn) [Compound 956] |  |  |  | IC50 (Target C; [4]): 100 to 1000 nM; IC50 (HTT; [5]): < 100 nM; IC50 (SMN2; [4]): < 100 nM
CN(c1ccc(-c2ccc(-c3cn[nH]c3)c3ncsc23)nn1)C1CC(C)(C)NC(C)(C)C1 [Compound 132] | 100 to 1000 | 100 to 1000 | < 100 | 
CC1(C)CC(Oc2ccc(-c3ccc(-c4cn[nH]c4)c4ncsc34)nn2)CCN1 (stereo not drawn) [Compound 182] | 1000 to 10000 | < 100 | 100 to 1000 | 
COc1nc(-c2ccc(N(C)[C@@H]3C[C@H]4CC[C@@H](C3)N4)nn2)ccc1-c1cn[nH]c1 [Compound 906] |  |  |  | IC50 (Target C; [4]): < 100 nM; IC50 (HTT; [5]): < 100 nM; IC50 (SMN2; [4]): < 100 nM
CN(c1ccc(-c2ccc(-c3cn[nH]c3)c3ncsc23)nn1)[C@H]1C[C@]2(C)CC[C@](C)(C1)N2 [Compound 204] | < 100 | < 100 | < 100 | 
Cc1cc(-c2ccc(-c3cnc(N(C)[C@@H]4C[C@H]5CCC[C@@H](C4)N5)nn3)c3scnc23)sn1 [Compound 580] | < 100 | < 100 | < 100 | 
CC(C)(C)[C@H]1CN(c2ncc(-c3ccc(-n4cccn4)c4[nH]ncc34)nn2)CCN1 [Compound 581] | 100 to 1000 | < 100 | 100 to 1000 | 
CN(c1ccc(-c2ccc(-c3cn[nH]c3)c(OC(F)F)n2)nn1)[C@@H]1C[C@H]2CC[C@@H](C1)N2 [Compound 955] |  |  |  | IC50 (Target C; [4]): 100 to 1000 nM; IC50 (HTT; [5]): < 100 nM; IC50 (SMN2; [4]): < 100 nM
Fc1cc(-c2ccc(O[C@@H]3C[C@H]4CC[C@@H](C3)N4)nn2)c2sncc2c1-c1cn[nH]c1 [Compound 327] | < 100 | < 100 | < 100 | 
CCN(c1ccc(-c2ccc(-c3cn[nH]c3)c3ncsc23)nn1)[C@@H]1C[C@H]2CCC[C@@H](C1)N2 [Compound 228] | < 100 | < 100 | < 100 | 
COc1cc(-c2ccc(-c3ccc(N(C)C4CC(C)(C)NC(C)(C)C4)nn3)c3scnc23)cnn1 [Compound 330] | < 100 | < 100 | < 100 | 
[2H]C([2H])([2H])N(c1ccc(-c2ccc(-c3cn[nH]c3)c3ncsc23)nn1)[C@@H]1C[C@H]2CCC[C@@H](C1)N2 [Compound 227] | < 100 | < 100 | < 100 | 
